# Data taken from patent US9839690B2, “Singlet oxygen-labile linkers and methods of production and use thereof” (The Board of Regents of the University of Oklahoma, priority 2012, dated 2017).
# Legend:
# [1] = Photophysical properties of selected compounds in DMSO; assay type: physicochemical
# [2] = Oxidation of aminoacrylate linker model compound with ROS quenchers; assay type: physicochemical; conditions: model compound 9 mM, CMP-OMe 9 mM, quencher 9 mM, 690 nm, 100 mW/cm^2
# Experimental: To determine the effect of specific ROS quenchers on the oxidation of the aminoacrylate linker, the rate of oxidation of aminoacrylate linker was determined by ^1H-NMR using the vinyl proton of the aminoacrylate linker (FIG. 20). A solution of (E)-N-phenyl-3-(piperidin-1-yl)acrylamide (9 mM), a photosensitizer (CMP-OMe, 9 mM), a ROS quencher (0 or 9 mM) was in a CDCl3 solvent in a NMR tube was exposed to the irradiation (690 nm diode laser, 100 mW/cm^2) and ^1H-NMR was taken every 5 min. The ROS quencher was either a singlet oxygen quencher (DABCO or β-Carotene) or a superoxide quencher (1,4-Benzoquinone) and the photosensitizer was CMP-OMe (5-(4-methoxyphenyl)-10,15,20-triphenyl-21,23-dithiaporphyrin).
# [3] = Relative rates of photooxidation of the linker in CMP-L-CA4 with ROS quenchers; assay type: physicochemical; conditions: 1.2 μmol each in CDCl3, 690 nm, 10 mW/cm^2
# Experimental: The reaction mixture was irradiated by using diode laser (690 nm, 10 mW/cm^2). The oxidation of the olefin with SO was monitored every 5 min by the decrease of the olefinic peaks of the aminoacrylate in ^1H-NMR
# [4] = 1H-NMR of drugs and model linker compound with CMP-OMe before and after irradiation; assay type: physicochemical; conditions: 1H-NMR
# Text: The cleavage of aminoacrylate linkers after irradiation was supported by the increased coumarin fluorescence of 9 by irradiation (FIGS. 14-21). The unique peak of each compound was integrated against the peak of CMP-OMe (four protons of CMP-OMe at 9.7 ppm, FIG. 14), which was known to be inert to singlet oxygen oxidation. […] However, we observed 77% decrease of the proton peak of the aminoacrylate linker after the irradiation (FIG. 21). […] PD 9 had negligible coumarin emission compared to that of free coumarin at the equimolar concentration. In the presence of 10 μM of 9, MCF-7 cells were incubated for 24 h to activate dPS. Then, the samples were irradiated by visible light (540±10 nm, 8 mW/cm^2, 30 min). […] The released free coumarin was also detected and quantified by HPLC based on the standard curve of free coumarin. As such, almost 99% of 9 released coumarin while only 64% of dPS of 9 were activated when irradiated.
# [5] = system: MCF-7 cells; assay: Phototoxicity, MTT (Example 5); assay type: cell-based
# Experimental: On the other hand, only a photodynamic effect could damage cells by [CMP-NCL-CA4+hv].
# MCF-7 cells were maintained in minimum essential medium (α-MEM) supplemented with 10% bovine growth serum, 2 mM L-glutamine, 50 units/mL penicillin G, 50 μg/mL streptomycin and 1.0 μg/mL fungizone. MCF-7 cells (5,000 cells/well) were seeded on 96-well plates in the medium and then incubated for 24 h at 37° C. in 5% CO2. Stock solutions (2 mM) were prepared in DMSO. The stocks were further diluted with medium to get necessary final concentrations. The diluted solution (10 μL) was then added to each well (190 μL). The plates were incubated for 24 h and then removed from the incubator. For the phototoxicity study: The plate without a cover was placed on an orbital shaker (Lab-line, Barnstead International) and irradiated by using a diode laser (690 nm, 5.6 mW/cm^2) for 30 min. To ensure uniformity of the light during the irradiation, each plate was shaken gently on an orbital shaker. […] Cell viability was determined after 3 days by using the MTT assay. […] Then, the MTT solution was removed and the cells were dissolved in 200 μL of DMSO and the absorbance within each well was measured at 570 nm with background subtraction at 650 nm. The cell viability was then quantified by measuring the absorbance of the treated wells compared to that of the untreated wells (controls) and expressed as a percentage.
# [6] = system: MCF-7 cells; assay: Dark toxicity, MTT (Example 5); assay type: cell-based
# Experimental: It seemed that the bulky groups, CMP-L and CMP-NCL, reduced the cytotoxic activity of CA4, presumably through the interference of its binding to tubulin as estimated by the modeling study.
# MCF-7 cells were maintained in minimum essential medium (α-MEM) supplemented with 10% bovine growth serum, 2 mM L-glutamine, 50 units/mL penicillin G, 50 μg/mL streptomycin and 1.0 μg/mL fungizone. MCF-7 cells (5,000 cells/well) were seeded on 96-well plates in the medium and then incubated for 24 h at 37° C. in 5% CO2. Stock solutions (2 mM) were prepared in DMSO. The stocks were further diluted with medium to get necessary final concentrations. The diluted solution (10 μL) was then added to each well (190 μL). The plates were incubated for 24 h and then removed from the incubator. For the phototoxicity study: The plate without a cover was placed on an orbital shaker (Lab-line, Barnstead International) and irradiated by using a diode laser (690 nm, 5.6 mW/cm^2) for 30 min. To ensure uniformity of the light during the irradiation, each plate was shaken gently on an orbital shaker. For the dark toxicity study: Plates were kept in the dark for 30 min, and then returned to the incubator. Cell viability was determined after 3 days by using the MTT assay. Briefly, a 10 μL solution of MTT (10 mg in 1 mL PBS buffer) was added to each well and the plate was incubated for 4 h. Then, the MTT solution was removed and the cells were dissolved in 200 μL of DMSO and the absorbance within each well was measured at 570 nm with background subtraction at 650 nm. The cell viability was then quantified by measuring the absorbance of the treated wells compared to that of the untreated wells (controls) and expressed as a percentage.
# [7] = molecular target: T1, tubulin (Sus scrofa, UniProt P02554); assay: Fluorescence-based tubulin polymerization assay; assay type: biochemical; conditions: 3 μM
# T1 construct: purchased Cytoskeleton, Inc. BK011P
# T1 sequence (P02554 whole entry): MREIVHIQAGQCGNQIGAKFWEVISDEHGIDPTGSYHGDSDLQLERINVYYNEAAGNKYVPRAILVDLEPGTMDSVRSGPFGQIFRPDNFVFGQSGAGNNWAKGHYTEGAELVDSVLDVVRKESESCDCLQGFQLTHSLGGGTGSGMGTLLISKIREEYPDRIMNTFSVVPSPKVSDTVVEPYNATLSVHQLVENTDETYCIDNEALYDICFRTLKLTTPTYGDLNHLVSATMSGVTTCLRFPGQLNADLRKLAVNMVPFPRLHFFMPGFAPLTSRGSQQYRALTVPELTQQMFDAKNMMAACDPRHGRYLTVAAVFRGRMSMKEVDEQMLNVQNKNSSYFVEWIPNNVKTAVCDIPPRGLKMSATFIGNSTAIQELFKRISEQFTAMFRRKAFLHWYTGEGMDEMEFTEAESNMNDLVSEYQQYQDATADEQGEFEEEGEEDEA
# T1 sequence (P02550 whole entry partner): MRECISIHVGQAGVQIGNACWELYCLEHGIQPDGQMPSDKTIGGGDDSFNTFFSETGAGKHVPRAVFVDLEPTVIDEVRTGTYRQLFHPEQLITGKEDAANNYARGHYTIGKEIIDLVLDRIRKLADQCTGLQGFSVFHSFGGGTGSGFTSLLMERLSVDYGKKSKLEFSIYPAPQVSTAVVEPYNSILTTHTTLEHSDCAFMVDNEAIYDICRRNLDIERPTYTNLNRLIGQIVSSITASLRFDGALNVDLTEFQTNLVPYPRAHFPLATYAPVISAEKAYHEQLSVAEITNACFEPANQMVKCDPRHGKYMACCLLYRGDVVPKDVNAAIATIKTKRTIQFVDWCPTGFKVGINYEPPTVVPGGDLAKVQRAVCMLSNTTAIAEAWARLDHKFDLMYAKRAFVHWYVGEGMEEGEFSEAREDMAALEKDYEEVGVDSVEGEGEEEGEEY
# Experimental: Paclitaxel and CA4 were used as positive control drugs (a polymerization enhancer and an inhibitor, respectively) in addition to the negative control group (FIG. 32).
# The fluorescence-based tubulin polymerization was determined by using a kit supplied by Cytoskeleton, Inc. (cat #=BK011P). Its basic principle is that the fluorescence reporter increases as it is incorporated into microtubules during the course of polymerization. The assay was performed following the experimental procedure as described in version 2.1 of the tubulin polymerization assay kit manual. Briefly, the test drug (final concentration=3 μM) was added to a mixture of tubulin and GTP in a buffer solution, and the reaction mixture was incubated at 37° C. Fluorescence was monitored (excitation=360 nm and emission=450 nm) by using a fluorescence plate reader (SpectraMax Gemini EM, Molecular device). Paclitaxel and CA4 were included in the assay as positive controls in addition to the negative control (vehicle only).
# [8] = literature (ref 88); cited from earlier work
# [9] = system: MCF-7 cells; assay: Dark toxicity, MTT cell viability (Example 4); assay type: cell-based; conditions: MCF-7, 96 hr, no irradiation
# Experimental: MCF-7 cells (5,000 cells/well) were seeded in 96 well plates. After the plates were incubated for 24 hr, the culture medium was aspirated and the cells were washed with cold PBS (100 μL) once. Then, prodrug in the 200 μL culture media was added to cells. The final concentrations ranging from 1 nM to 1 μM were used to perform concentration dependent cell viability and 25 nM prodrug was used to perform time dependent drug release study. After 96 hr incubation, the cell viability was determined by MTT assay detailed below. The experiments were performed in triplicate. IC50 values were calculated with GraphPad Prism 5.
# Cell viability was assessed by MIT assay.^89 In brief, after thoroughly washing the cells 2× with PBS buffer, the cells were treated with 200 μL 0.5 mg/mL MIT (3-(4,5-dimethylthiazol-2-yl)-2,5-diphenyltetrazolium bromide, a yellow tetrazole). Subsequently, the cells were incubated at 37° C. under a humidified atmosphere of 5% CO2 for 4 h. After 4 h of incubation, the solution from each well was taken out, and washed with PBS one time and added 100 μL DMSO. The plates were shaken at room temperature for 10 min and read immediately at 570 nm on a microplate reader (Spectra max, Molecular devices). Cell viability (%) was expressed as a ratio of treated cells to control cells.
# [10] = literature (ref 79); cited from earlier work
# [11] = Photooxidation of 1,2-diheteroatom-substituted olefins with CMP-OMe, 690 nm diode laser (Example 2); assay type: physicochemical
# Experimental: In a NMR tube, an olefin (0.0048 mmol) was dissolved in CDCl3 (0.5 mL). The photosensitizer [5-(4-methoxyphenyl)-10,15,20-triphenyl-21-23-dithiaporphyrin, CMP-OMe, 3 mg, 0.0048 mmol] was added to this solution. Then, the reaction mixture was irradiated for 15 min using a diode laser (690 nm, 200 mW/cm^2). The reaction of olefins with singlet oxygen was monitored by the decrease of olefinic peaks in ^1H-NMR spectra. The formation of the photooxidation products were also determined by appearance of the formate (or thioformate) peaks in ^1H-NMR spectra.
# To examine the oxidation rate of these electron-rich alkenes with singlet oxygen (Scheme 4), compounds 6, 8, and 10 were irradiated in the presence of 5-(4-methoxyphenyl)-10,15,20-triphenyl-21,23-dithiaporphyrin as a photosensitizer.^53 All experiments were performed following the standard procedure previously set with a slight modification by using a 690 nm diode laser source (200 mW/cm^2).^35 In the experiments, the amount of sensitizer used was not catalytic. Here, the ratio of olefin and photosensitizer used was 1:1 to mimic the situation of prodrug where the olefinic linker could be used for connecting one drug molecule to one photosensitizer molecule.^7,35 The reaction solutions were irradiated for 15 min and monitored every 5 min using olefinic peaks in ^1H-NMR each time to monitor the progress of the reactions. Upon the oxidation by singlet oxygen, the olefinic peaks decreased.
# [12] = Photooxygenation of model compounds 2-16 with dithiaporphyrin photosensitizer, 690 nm diode laser (Example 3); assay type: physicochemical
# Experimental: To evaluate the rate of oxidation by singlet oxygen, the model compounds 2-7 were irradiated by a diode laser (690 nm, 200 mW/cm2, 25 min) in the presence of the photosensitizer 5-(4-methoxyphenyl)-10,15,20-[…]-21,23-dithiaporphyrin (FIG. 11 and Table 5). The reaction of olefins with singlet oxygen was monitored by the decrease of olefinic proton peaks in the ^1H-NMR spectra. (Z)-1,2-Bis(phenylthio)ethylene was used as positive control. […] Oxidation of only the nitrogen analogues is probably due to electron donation from the nitrogen to the carbonyl group making the olefinic bond electron rich for attack by singlet oxygen.
# In a NMR tube, an olefin (0.0048 mmol) was dissolved in CDCl3 (0.5 mL). The photosensitizer compound (32), 3 mg, 0.0048 mmol] was added to this solution. […] The reaction of olefins with singlet oxygen was monitored by the decrease of olefinic peaks in ^1H-NMR spectra. In the case of compound 14, 15 and 16 no photosensitizer was added.
# [13] = 0 min, 690 nm diode laser, 200 mW/cm^2, CDCl3, no added photosensitizer for 14, 15, 16
molecule,measurement,setting,value
5-(6) carboxy-fluorescein,Extinction Coefficient,[1],80000 M⁻¹ cm⁻¹
same,"FQY (φ), fluorescence quantum yield",[1],0.90
same,emax (emission maximum),[1],525 nm
same,λmax (absorption maximum),[1],462 nm
"O=C1C=CC(=O)C=C1 [1,4-benzoquinone]",Effect of ROS quencher on oxidation of the aminoacrylate linker,[2],did not make any delay of the oxidation of the linker
same,Effect of ROS quencher on oxidation of aminoacrylate linker of CMP-L-CA4,[3],did not have any effect on the oxidation of the aminoacrylate linker
Cc1cc(=O)oc2cc(O)ccc12 [7-hydroxy-4-methyl-coumarin],Extinction Coefficient,[1],15800 M⁻¹ cm⁻¹
same,"FQY (φ), fluorescence quantum yield",[1],0.14
same,emax (emission maximum),[1],378 nm
same,λmax (absorption maximum),[1],325 nm
same,Oxidation under the irradiation condition,[4],not oxidized at all
COc1ccc(/C=C\c2cc(OC)c(OC)c(OC)c2)cc1OCCCN1CCN(C(=O)COc2ccc(-c3c4nc(c(-c5ccccc5)c5ccc(s5)c(-c5ccccc5)c5nc(c(-c6ccccc6)c6ccc3s6)C=C5)C=C4)cc2)CC1 [CMP-NCL-CA4],Increase of cytotoxicity after irradiation,[5]; IC50 dark vs irradiated,1.7 fold
same,IC50,"[5]; MCF-7, 690 nm, 5.6 mW/cm^2, 30 min, read-out: IC50 after irradiation (phototoxicity)",1.06 µM
same,IC50,"[6]; MCF-7, dark, 3 days, read-out: IC50D (dark toxicity)",1.8 µM
same,Reduction of cytotoxicity relative to CA4,[6]; dark,200 fold
same,Inhibition of tubulin polymerization,[7]; 1 h incubation at 37° C.,9%
"C1CN2CCN1CC2 [DABCO, 1,4-diazabicyclo[2.2.2]octane]",Singlet oxygen quenching rate constant k,[8],2.6e+08 M⁻¹ s⁻¹
same,Effect of ROS quencher on oxidation of the aminoacrylate linker,[2],effectively delayed the oxidation of the aminoacrylate linker
same,Effect of ROS quencher on oxidation of aminoacrylate linker of CMP-L-CA4,[3],dramatically delayed the oxidation of aminoacrylate
CCc1c2c(nc3ccc(O)cc13)-c1cc3c(c(=O)n1C2)COC(=O)[C@]3(O)CC [SN-38],IC50,[9],170 nM
same,Oxidation under the irradiation condition,[4],not oxidized at all
same,Times more active than irinotecan,[10],at least 1000 times
"C(=C/Sc1ccccc1)/Sc1ccccc1 [control, (Z)-1,2-Bis(phenylthio) ethene]",Remaining olefins (%),"[11]; 0 min, CMP-OMe, 690 nm, 200 mW/cm^2, CDCl3",100%
same,Remaining olefins (%),[11]; 5 min,38%
same,Remaining olefins (%),[11]; 10 min,11%
same,Remaining olefins (%),[11]; 15 min,0%
same,Percentile of remaining compound,[12]; [13],100
same,Percentile of remaining compound,[12]; 5 min,70
same,Percentile of remaining compound,[12]; 10 min,59
same,Percentile of remaining compound,[12]; 15 min,41
same,Percentile of remaining compound,[12]; 20 min,23
same,Percentile of remaining compound,[12]; 25 min,13
same,Decrease of olefinic proton peaks (photo-oxidation),[12]; 25 min of irradiation,87%
CC(=O)O[C@H]1C(=O)[C@@]2(C)[C@H]([C@H](OC(=O)c3ccccc3)[C@]3(O)C[C@H](OC(=O)[C@H](O)[C@@H](NC(=O)c4ccccc4)c4ccccc4)C(C)=C1C3(C)C)[C@]1(OC(C)=O)CO[C@@H]1C[C@@H]2O [paclitaxel],Pattern of kinetic trace of tubulin polymerization,[7],enhancer
CC1=C(/C=C/C(C)=C/C=C/C(C)=C/C=C/C=C(C)/C=C/C=C(C)/C=C/C2=C(C)CCCC2(C)C)C(C)(C)CCC1 [β-carotene],Singlet oxygen quenching rate constant k,[8],1.2e+10 M⁻¹ s⁻¹
same,Effect of ROS quencher on oxidation of the aminoacrylate linker,[2],effectively delayed the oxidation of the aminoacrylate linker
same,Effect of ROS quencher on oxidation of aminoacrylate linker of CMP-L-CA4,[3],dramatically delayed the oxidation of aminoacrylate
"(E)-((13S)-13-Methyl-17-oxo-7,8,9,11,12,13,14,15,16,17-decahydro-6H cyclopenta[a] phenanthren-3-yl)3-(4-((2-phenoxy-10,15,20-triphenyl-21,23-dithiaporphyrinacetoxy)methyl) piperidin-1-yl)acrylate [Compound 16 (Example 3)]",Percentile of remaining compound,[12]; [13],100
same,Percentile of remaining compound,[12]; 5 min,60
same,Percentile of remaining compound,[12]; 10 min,10
same,Release of parent molecule after irradiation,[12]; GC-MS / SI,successfully released Estrone
same,Photo-oxidation,[12]; in 10 min,90%
